Data as given in patent publication US5330983A, “14-O-p-chlorobenzoylaconine and analgesic/anti-inflammatory agent containing the same” (priority 1991, dated 1994).
Counter-ions that a name gives are not always drawn.

What was measured:
[1] = tested on: Male mice of the Std:ddY Strain; test: Analgesic activity by the acetic acid-induced writhing method; type: in vivo; conditions: acetic acid i.p., counted for 10 min, n = 10
Experimental: Measurement of Analgesic Activity by the Acetic Acid-Induced Writhing Method
Male mice of the Std:ddY Strain (20-25 g), which were fasted for one night before the initiation of the experiment, were used. Test compound hardly soluble in water was used in 3% suspension in gum arabic. Test compound taking a salt form was used in aqueous solution. 0.7% acetic acid in 0.9% physiological saline solution was injected i.p. (10 ml/kg) at 2 hours and 50 minutes after the test compound was administered p.o. After 10 minutes, the number of writhing movements was counted for a period of 10 minutes.

[2] = tested on: Male mice of the Std:ddY Strain; test: Analgesic activity by the phenylquinone-induced writhing method; type: in vivo; conditions: phenylquinone i.p., counted for 15 min, n = 8~10
Experimental: Measurement of Analgesic Activity by the Phenylquinone-Induced Writhing Method
Male mice of the Std:ddY Strain (20-25 g), which were fasted for one night before the initiation of the experiment, were used. Test compound hardly soluble in water was used in 3% suspension in gum arabic. Test compound taking a salt form was used in aqueous solution. 0.03% phenylquinone in 0.5% ethanol solution was injected i.p. (10 ml/kg) at 2 hours and 55 minutes after the compound was administered p.o. After 5 minutes, the number of writhings was counted for a period of 15 minutes.

[3] = tested on: Male mice of the Std:ddY Strain; test: Analgesic activity by the tail-pressure method; type: in vivo
Experimental: Measurement of Analgesic Activity by the Tail-Pressure Method
Male mice of the Std:ddY Strain (20-25 g), which were fasted for one night before the initiation of the experiment, were used. Test compound hardly soluble in water was used in 3% suspension in gum arabic. Test compound taking a salt form was used in aqueous solution. Experiments were made with a tail-pressure apparatus. Before the administration of test compounds, the pain threshold was measured twice at intervals of 30 minutes and those mice indicating a pain threshold of 30 to 80 mmHg were selected and used. The pain threshold of each mouse was measured at 1, 3 and 5 hours after test compounds were administered p.o. The results were described as a percentage of the pain threshold after the treatment with test compound relative to that before the treatment with test compound.

[4] = tested on: Male mice of the Std:ddY Strain; test: Analgesic activity by the hot plate method; type: in vivo; conditions: 52° C. plate
Experimental: Measurement of Analgesic Activity by the Hot Plate Method
Male mice of the Std:ddY Strain (20-25 g), which were fasted for one night before the initiation of the experiment, were used. Test compound hardly soluble in water was used in 3% suspension in gum arabic. Test compound taking a salt form was used in aqueous solution. Mice were placed on a cyrindric hot plate (diameter: 22 cm, height: 11 cm) made of copper which was fixed in a water bath adjusted to 52° C. so that each animal's four paws came into contact with the plate and the time taken to show the nociceptive response (jumping and licking) as an index of pain was measured. Mice showing response times above 25 seconds were excluded from the experiment. The analgesic activity of the compound was measured at 1, 3 and 5 hours after test compound was administered p.o. The results are shown in Table 4.

[5] = tested on: Male rats of the Wistar strain; test: Antiinflammatory activity by the carrageenin-induced hind paw edema; type: in vivo; conditions: 100 mg/kg p.o.
Experimental: Measurement of Antiinflammatory Activity by the Carrageenin-Induced Hind Paw Edema
Male rats of the Wistar strain (5 weeks old, 120-130 g), which were fasted for one night before the initiation of the experiment, were used. One hour after the oral administration of test compound, λ-carrageenin (1%) was injected s.c. under the plantar surface of the right hind paw. Thereafter, at one hour intervals for 6 hours, the volume of the paw was measured using an apparatus therefor. The results were described as a swelling rate (%) calculated using the following equation:
(R-L)×100/L=swelling rate (%)
R: the volume of the right hind paw
L: the volume of the left hind paw

in vivo = test: in vivo; parameters: species or system mice (Std:ddY); conditions: mouse, in vivo, po; mortality during 72 hours; Litchfield-Wilcoxon
From the text: (§1) EXPERIMENT EXAMPLE 6 (ACUTE TOXICITY)
(§2) Male mice of the Std:ddY Strain (20-25 g), which were fasted for one night before the initiation of the experiment, were used. Test compound hardly soluble in water was used in 3% suspension in gum arabic. Test compound taking a salt form was used in aqueous solution.

[6] = tested on: Male mice of the Std:ddY Strain; test: in vivo; conditions: p.o., mortality during 72 hours, Litchfield-Wilcoxon, 4320 min
From the text: as §1, §2

Property and solubility = type: physicochemical

| SMILES | The number of writhings, mean ± S.E. ([1]; 3 mg/kg p.o.) | The number of writhings, mean ± S.E. ([1]; 10 mg/kg p.o.) | The number of writhings, mean ± S.E. ([1]; 30 mg/kg p.o.) | The number of writhings, mean ± S.E. ([2]; 3 mg/kg p.o.) | The number of writhings, mean ± S.E. ([2]; 10 mg/kg p.o.) | The number of writhings, mean ± S.E. ([2]; 30 mg/kg p.o.) | Pain threshold (%, mean ± S.E.), posttreatment relative to pretreatment ([3]; 100 mg/kg p.o., 1 h) | Pain threshold (%, mean ± S.E.), posttreatment relative to pretreatment ([3]; 100 mg/kg p.o., 3 h) | Pain threshold (%, mean ± S.E.), posttreatment relative to pretreatment ([3]; 100 mg/kg p.o., 5 h) | Pain threshold (%, mean ± S.E.), posttreatment relative to pretreatment ([3]; 300 mg/kg p.o., 1 h) | Pain threshold (%, mean ± S.E.), posttreatment relative to pretreatment ([3]; 300 mg/kg p.o., 3 h) | Pain threshold (%, mean ± S.E.), posttreatment relative to pretreatment ([3]; 300 mg/kg p.o., 5 h) | Pain threshold (s, mean ± S.E.) ([4]; 100 mg/kg p.o., 1 h) | Pain threshold (s, mean ± S.E.) ([4]; 100 mg/kg p.o., 3 h) | Pain threshold (s, mean ± S.E.) ([4]; 100 mg/kg p.o., 5 h) | Pain threshold (s, mean ± S.E.) ([4]; 300 mg/kg p.o., 1 h) | Pain threshold (s, mean ± S.E.) ([4]; 300 mg/kg p.o., 3 h) | Pain threshold (s, mean ± S.E.) ([4]; 300 mg/kg p.o., 5 h) | Swelling rate (%, mean ± S.E.) ([5]; 1 h after carrageenin) | Swelling rate (%, mean ± S.E.) ([5]; 2 h after carrageenin) | also measured |
| --- | --- | --- | --- | --- | --- | --- | --- | --- | --- | --- | --- | --- | --- | --- | --- | --- | --- | --- | --- | --- | --- |
| CCN1CC2(COC)C(O)CC(OC)C34C5CC6(O)C(OC)C(O)C(C5C6OC(=O)c5ccccc5)C(C(OC)C23)C14 (stereo not drawn) [8-deoxy-14-O-benzoylaconine, reference compound] | 24.1 ± 2.7 | 21.9 ± 2.6 | 17.8 ± 2.5 | 27.1 ± 2.7 | 25.0 ± 3.0 | 24.0 ± 2.3 | 101.8 ± 14.1% | 100.2 ± 7.2% | 105.6 ± 9.2% | 115.6 ± 17.0% | 116.2 ± 12.0% | 110.2 ± 7.0% | 17.3 ± 1.7 s | 17.9 ± 2.1 s | 18.9 ± 1.7 s | 18.6 ± 1.6 s | 24.0 ± 2.3 s | 19.6 ± 2.0 s | 24.8 ± 9.2% | 36.3 ± 6.3% | Swelling rate (%, mean ± S.E.) ([5]; 3 h after carrageenin): 59.8 ± 6.3%; Swelling rate (%, mean ± S.E.) ([5]; 4 h after carrageenin): 63.5 ± 1.0%; Swelling rate (%, mean ± S.E.) ([5]; 5 h after carrageenin): 70.3 ± 3.9%; Swelling rate (%, mean ± S.E.) ([5]; 6 h after carrageenin): 72.2 ± 6.0%; LD50 at 72 h (in vivo): > 100 mg/kg |
| CCN1C[C@]2(COC)[C@H](O)C[C@H](OC)[C@]34C1[C@H]([C@H](OC)[C@H]23)[C@]1(O)[C@H]2[C@@H](OC(=O)c3ccc(Cl)cc3)[C@](O)(C[C@H]24)[C@@H](OC)[C@@H]1O [14-O-p-chlorobenzoylaconine tartrate] | 17.8 ± 2.5 | 15.5 ± 2.3 | 10.7 ± 2.1 | 21.1 ± 2.4 | 18.3 ± 2.2 | 15.7 ± 2.7 | 102.6 ± 3.4% | 141.1 ± 8.3% | 128.0 ± 4.9% | 147.0 ± 7.8% | 240.4 ± 25.0% | 202.9 ± 19.7% | 17.3 ± 2.2 s | 26.7 ± 3.2 s | 24.7 ± 2.1 s | 18.7 ± 1.7 s | 42.5 ± 11.0 s | 25.7 ± 2.7 s | 16.0 ± 3.6% | 31.5 ± 3.1% | Swelling rate (%, mean ± S.E.) ([5]; 3 h after carrageenin): 47.3 ± 7.4%; Swelling rate (%, mean ± S.E.) ([5]; 4 h after carrageenin): 56.1 ± 2.0%; Swelling rate (%, mean ± S.E.) ([5]; 5 h after carrageenin): 49.6 ± 5.0%; Swelling rate (%, mean ± S.E.) ([5]; 6 h after carrageenin): 57.6 ± 9.0%; LD50 [6]: > 1000 mg/kg |
| CCN1C[C@]2(COC)[C@H](O)C[C@H](OC)[C@]34C1[C@H]([C@H](OC)[C@H]23)[C@]1(O)[C@H]2[C@@H](OC(=O)c3ccc(Cl)cc3)[C@](O)(C[C@H]24)[C@@H](OC)[C@@H]1O [14-O-p-chlorobenzoylaconine] | 19.8 ± 2.5 | 17.3 ± 2.4 | 12.9 ± 3.7 | 20.1 ± 3.6 | 17.3 ± 2.8 | 15.9 ± 3.5 | 100.4 ± 2.5% | 129.6 ± 10.3% | 108.0 ± 6.0% | 120.0 ± 7.3% | 182.0 ± 21.7% | 166.0 ± 20.1% | 21.6 ± 2.2 s | 21.6 ± 2.0 s | 27.6 ± 0.9 s | 22.2 ± 1.5 s | 38.4 ± 3.3 s | 24.0 ± 1.6 s | 22.4 ± 8.0% | 28.0 ± 2.4% | Swelling rate (%, mean ± S.E.) ([5]; 3 h after carrageenin): 51.0 ± 2.8%; Swelling rate (%, mean ± S.E.) ([5]; 4 h after carrageenin): 58.6 ± 2.4%; Swelling rate (%, mean ± S.E.) ([5]; 5 h after carrageenin): 66.8 ± 3.7%; Swelling rate (%, mean ± S.E.) ([5]; 6 h after carrageenin): 72.9 ± 5.3%; LD50 at 72 h (in vivo): > 1000 mg/kg; LD50 ([6]; listed as compound of the formula (I)): ≥ 1,000 mg/kg; Solubility in organic solvents (Property and solubility; ether, chloroform, benzene, methanol, ethanol, acetone, ethyl acetate, pyridine and dimethyl sulfoxide): Soluble; Solubility in hexane and water (Property and solubility; hexane and water): Insoluble |
